Test results: patent US11400081B2, “Compounds” (The University of Sheffield, priority 2017, dated 2022)

What follows are molecules tested against T1, AM2 receptor (CALCRL+RAMP3) (Homo sapiens, UniProt O60896+Q16602) (assay: AM2 receptor inhibition, LANCE TR-FRET cAMP agonist-antagonist competition assay). Conditions: inhibition of AM induced cAMP activation; 1321N1 cells transfected with CALCRL+RAMP3; read-out: AM2 pIC50 (converted).
T1 construct: host or cells: 1321N1
T1 sequence (Q16602 23-461): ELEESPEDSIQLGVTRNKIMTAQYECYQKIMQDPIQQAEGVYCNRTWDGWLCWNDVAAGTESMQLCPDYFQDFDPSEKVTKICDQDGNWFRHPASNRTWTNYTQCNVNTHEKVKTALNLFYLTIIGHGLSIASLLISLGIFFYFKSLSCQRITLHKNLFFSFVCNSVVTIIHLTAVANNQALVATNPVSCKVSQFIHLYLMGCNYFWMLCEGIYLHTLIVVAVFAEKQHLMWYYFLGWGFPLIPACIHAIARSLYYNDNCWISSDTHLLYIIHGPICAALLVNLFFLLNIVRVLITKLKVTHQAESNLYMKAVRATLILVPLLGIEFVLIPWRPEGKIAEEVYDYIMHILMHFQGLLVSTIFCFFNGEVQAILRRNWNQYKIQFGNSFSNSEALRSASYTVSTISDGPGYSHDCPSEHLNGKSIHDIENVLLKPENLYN
T1 sequence (O60896 24-148): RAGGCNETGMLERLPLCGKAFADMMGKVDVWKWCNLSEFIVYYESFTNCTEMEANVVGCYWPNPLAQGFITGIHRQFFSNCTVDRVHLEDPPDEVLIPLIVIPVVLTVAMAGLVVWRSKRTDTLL
Format: cell-based
Procedure: Compounds were assessed for their ability to inhibit ligand-induced elevations of cAMP, using the Perkin Elmer LANCE cAMP assay using commercially-available cells expressing a specific receptor of interest using the following general procedure:
Compounds were prepared in dimethyl sulfoxide (DMSO—99.9% pure) (Sigma Aldrich, Cat #: D4540) added to powder stocks to produce a 20 mM solution (100% DMSO) that was sonicated at 37° C. for 10 minutes to fully dissolve the compounds. The 20 mM stocks were diluted further in DMSO to produce a 2 mM solution that was sonicated at 37° C. for 10 minutes. 2 mM stocks were dissolved in assay/stimulation buffer to produce a 400 μM solution that was sonicated at 37° C. for 10 minutes for all cAMP assays. All stocks were stored at −20° C. Then serial dilution (Dilution factor 10) was performed to achieve the desire experimental concentrations.
Competition assays were performed according to the manufactures instructions using LANCE® TR-FRET cAMP assay kit (Perkin Elmer, Cat #: AD0264). Serial dilutions (3 μl/well) of the molecules were plated in a 384-well OptiPlate (Perkin Elmer, Cat #: 6007299) in duplicates. Appropriate controls (100% stimulation: Forskolin and 0% stimulation: Vehicle control) (6 μl/well) were included in each plate for data normalization. Following the compound addition, 6 μl of G-protein coupled receptor overexpressing cells/Alexa Fluor antibody solution (1:100 dilution) was added in each well at a desired density of 2500 cells/well. The overexpressing cell lines were purchased from DiscoveRx, Birmingham, UK. After spinning the plate at 1000 rpm for 1 minute and vortexing briefly, the cells were pre-incubated with the compounds for 30 minutes at room temperature (covered). Then 3 μl of the equivalent peptide ligand (EC50 dose) was added to all the wells except vehicle and forskolin controls. The plate were then spun down at 1000 rpm for 1 minute and once finished they were vortexed briefly and covered. Cells were stimulated in the presence of the ligands for 15 minutes at room temperature. After stimulation 12 μl of detection mix (Europium-Chelate streptavidin/biotinylated cAMP tracer solution) was added to all wells and incubated for 60 minutes at room temperature. The plate was then read on the Enspire multimode Plate reader (Perkin Elmer), at; 320/340 nm excitation and 615/665 nm emission was recorded.
• 28 mL Hank's Balanced salt solution (+MgCl2, +CaCl2)—(Thermo Fisher Cat #:14170112) • 150 μl HEPES (1M)—(Thermo Fisher Cat #:15630080) • 400 μl Stabilizer (DTPA) Purified BSA (7.5%)—(Perkin Elmer, Cat #: CR84-100) • 60 μl IBMX (250 mM)—(Sigma Aldrich, Cat #: 15879) Specific cAMP/Agonist-Antagonist Competition Assays
The ability of a compound to inhibit the AM induced cAMP activation in AM2 receptor-expressing cells (1321N1 cells transfected with CALCRL+RAMP3, sourced from DiscoverX catalogue number 95-0169C6) was assessed using the protocol above.
`CC(C)(C)C(=O)N(CC(=O)Nc1ccc2c(c1)CC1(C2)C(=O)Nc2ncccc21)Cc1ccccc1CNCC(F)F` (stereo not drawn) [Example 3, N-(2-(((2,2-Difluoroethyl)amino)methyl)benzyl)-N-(2-oxo-2-((2′-oxo-1,1′,2′,3-tetrahydrospiro[indene-2,3′-pyrrolo[2,3-b]pyridine]-5-yl)amino)ethyl)pivalamide] gave an IC50 of 324 nM. With `CC(C)(C)C(=O)N(CC(=O)Nc1ccc2c(c1)CC1(C2)C(=O)Nc2ncccc21)Cc1ccccc1CN1CCCC1` (stereo not drawn) [Example 4, N-(2-Oxo-2-((2′-oxo-1,1′,2′,3-tetrahydrospiro[indene-2,3′-pyrrolo[2,3-b]pyridine]-5-yl)amino)ethyl)-N-(2-(pyrrolidin-1-ylmethyl)benzyl)pivalamide] the IC50 was 60.3 nM. In the case of `CC(C)(C)C(=O)N(CC(=O)Nc1ccc2c(c1)CC1(C2)C(=O)Nc2ncccc21)Cc1ccccc1CNCC(F)(F)F` (stereo not drawn) [Example 6, N-(2-Oxo-2-((2′-oxo-1,1′,2′,3-tetrahydrospiro[indene-2,3′-pyrrolo[2,3-b]pyridine]-5-yl)amino)ethyl)-N-(2-(((2,2,2-trifluoroethyl)amino)methyl)benzyl)pivalamide], the IC50 is reported as 513 nM. For `CN(C)CCNCc1ccccc1CN(CC(=O)Nc1ccc2c(c1)CC1(C2)C(=O)Nc2ncccc21)C(=O)C(C)(C)C` (stereo not drawn) [Example 7, N-(2-(((2-(Dimethylamino)ethyl)amino)methyl)benzyl)-N-(2-oxo-2-((2′-oxo-1,1′,2′,3-tetrahydrospiro[indene-2,3′-pyrrolo[2,3-b]pyridine]-5-yl)amino)ethyl)pivalamide], the IC50 was 126 nM. `CC(C)(C)C(=O)N(CC(=O)Nc1ccc2c(c1)CC1(C2)C(=O)Nc2ncccc21)Cc1ccccc1CNCC1CC1` (stereo not drawn) [Example 8, N-(2-(((Cyclopropylmethyl)amino)methyl)benzyl)-N-(2-oxo-2-((2′-oxo-1,1′,2′,3-tetrahydrospiro[indene-2,3′-pyrrolo[2,3-b]pyridine]-5-yl)amino)ethyl)pivalamide] was tested, and the IC50 was 166 nM. `CC(C)(C)C(=O)N(CC(=O)Nc1ccc2c(c1)CC1(C2)C(=O)Nc2ncccc21)Cc1ccccc1CNCc1ncc[nH]1` (stereo not drawn) [Example 9, N-(2-((((1H-Imidazol-2-yl)methyl)amino)methyl)benzyl)-N-(2-oxo-2-((2′-oxo-1,1′,2′,3-tetrahydrospiro[indene-2,3′-pyrrolo[2,3-b]pyridine]-5-yl)amino)ethyl)pivalamide] showed an IC50 of 240 nM. `CC(C)(C)C(=O)N(CC(=O)Nc1ccc2c(c1)CC1(C2)C(=O)Nc2ncccc21)Cc1ccccc1CN1CC(F)C1` (stereo not drawn) [Example 10, N-(2-((3-Fluoroazetidin-1-yl)methyl)benzyl)-N-(2-oxo-2-((2′-oxo-1,1′,2′,3-tetrahydrospiro[indene-2,3′-pyrrolo[2,3-b]pyridin]-5-yl)amino)ethyl)pivalamide] gave an IC50 of 91.2 nM. `CC(C)(C)C(=O)N(CC(=O)Nc1ccc2c(c1)CC1(C2)C(=O)Nc2ncccc21)Cc1ccccc1CN1CC(F)(F)C1` (stereo not drawn) [Example 11, N-(2-((3,3-Difluoroazetidin-1-yl)methyl)benzyl)-N-(2-oxo-2-((2′-oxo-1,1′,2′,3-tetrahydrospiro[indene-2,3′-pyrrolo[2,3-b]pyridin]-5-yl)amino)ethyl)pivalamide] was tested, and the IC50 was 398 nM. `CN(C)CCCNCc1ccccc1CN(CC(=O)Nc1ccc2c(c1)CC1(C2)C(=O)Nc2ncccc21)C(=O)C(C)(C)C` (stereo not drawn) [Example 12, N-(2-(((3-(Dimethylamino)propyl)amino)methyl)benzyl)-N-(2-oxo-2-((2′-oxo-1,1′,2′,3-tetrahydrospiro[indene-2,3′-pyrrolo[2,3-b]pyridin]-5-yl)amino)ethyl)pivalamide] was tested, and the IC50 was 186 nM. `CC(C)(C)C(=O)N(CC(=O)Nc1ccc2c(c1)CC1(C2)C(=O)Nc2ncccc21)Cc1ccccc1CNCCO` (stereo not drawn) [Example 13, N-(2-(((2-Hydroxyethyl)amino)methyl)benzyl)-N-(2-oxo-2-((2′-oxo-1,1′,2′,3-tetrahydrospiro[indene-2,3′-pyrrolo[2,3-b]pyridin]-5-yl)amino)ethyl)pivalamide] was tested, and the IC50 was 33.1 nM. `CC(C)(C)C(=O)N(CC(=O)Nc1ccc2c(c1)CC1(C2)C(=O)Nc2ncccc21)Cc1ccccc1CNCCF` (stereo not drawn) [Example 17, N-(2-(((2-Fluoroethyl)amino)methyl)benzyl)-N-(2-oxo-2-((2′-oxo-1,1′,2′,3-tetrahydrospiro[indene-2,3′-pyrrolo[2,3-b]pyridin]-5-yl)amino)ethyl)pivalamide] showed an IC50 of 12.3 nM. `COCCNCc1ccccc1CN(CC(=O)Nc1ccc2c(c1)CC1(C2)C(=O)Nc2ncccc21)C(=O)C(C)(C)C` (stereo not drawn) [Example 18, N-(2-(((2-Methoxyethyl)amino)methyl)benzyl)-N-(2-oxo-2-((2′-oxo-1,1′,2′,3-tetrahydrospiro[indene-2,3′-pyrrolo[2,3-b]pyridin]-5-yl)amino)ethyl)pivalamide] gave an IC50 of 33.1 nM. Molecule `CC(C)NCc1ccccc1CN(CC(=O)Nc1ccc2c(c1)CC1(C2)C(=O)Nc2ncccc21)C(=O)C(C)(C)C` (stereo not drawn) [Example 19, N-(2-((Isopropylamino)methyl)benzyl)-N-(2-oxo-2-((2′-oxo-1,1′,2′,3-tetrahydrospiro[indene-2,3′-pyrrolo[2,3-b]pyridin]-5-yl)amino)ethyl)pivalamide] has an IC50 of 89.1 nM. In the case of `CC(C)(C)C(=O)N(CC(=O)Nc1ccc2c(c1)CC1(C2)C(=O)Nc2ncccc21)Cc1ccccc1CNC1CCC1` (stereo not drawn) [Example 20, N-(2-((Cyclobutylamino)methyl)benzyl)-N-(2-oxo-2-((2′-oxo-1,1′,2′,3-tetrahydrospiro[indene-2,3′-pyrrolo[2,3-b]pyridin]-5-yl)amino)ethyl)pivalamide], the IC50 is reported as 105 nM. `CNC(C)c1ccccc1CN(CC(=O)Nc1ccc2c(c1)CC1(C2)C(=O)Nc2ncccc21)C(=O)C(C)(C)C` (stereo not drawn) [Example 23, N-(2-(1-(Methylamino)ethyl)benzyl)-N-(2-oxo-2-((2′-oxo-1,1′,2′,3-tetrahydrospiro[indene-2,3′-pyrrolo[2,3-b]pyridin]-5-yl)amino)ethyl)pivalamide] was tested, and the IC50 was 13.2 nM. Work on `CC(c1ccccc1CN(CC(=O)Nc1ccc2c(c1)CC1(C2)C(=O)Nc2ncccc21)C(=O)C(C)(C)C)N(C)C` (stereo not drawn) [Example 24, N-(2-(1-(Dimethylamino)ethyl)benzyl)-N-(2-oxo-2-((2′-oxo-1,1′,2′,3-tetrahydrospiro[indene-2,3′-pyrrolo[2,3-b]pyridin]-5-yl)amino)ethyl)pivalamide] yielded an IC50 of 34.7 nM. In the case of `CC(c1ccccc1CN(CC(=O)Nc1ccc2c(c1)CC1(C2)C(=O)Nc2ncccc21)C(=O)C(C)(C)C)N1CCC1` (stereo not drawn) [Example 25, N-(2-(1-(Azetidin-1-yl)ethyl)benzyl)-N-(2-oxo-2-((2′-oxo-1,1′,2′,3-tetrahydrospiro[indene-2,3′-pyrrolo[2,3-b]pyridin]-5-yl)amino)ethyl)pivalamide], the IC50 is reported as 75.9 nM. `CCNCc1ccccc1CN(CC(=O)Nc1ccc2c(c1)CC1(C2)C(=O)Nc2ncccc21)C(=O)C(C)(C)C` (stereo not drawn) [Example 27, N-(2-((Ethylamino)methyl)benzyl)-N-(2-oxo-2-((2′-oxo-1,1′,2′,3-tetrahydrospiro[indene-2,3′-pyrrolo[2,3-b]pyridin]-5-yl)amino)ethyl)pivalamide] showed an IC50 of 30.2 nM. In the case of `C=CCN(CC=C)CCc1ccccc1CN(CC(=O)Nc1ccc2c(c1)CC1(C2)C(=O)Nc2ncccc21)C(=O)C(C)(C)C` (stereo not drawn) [Example 28, N-(2-(2-(Diallylamino)ethyl)benzyl)-N-(2-oxo-2-((2′-oxo-1,1′,2′,3-tetrahydrospiro[indene-2,3′-pyrrolo[2,3-b]pyridin]-5-yl)amino)ethyl)pivalamide], the IC50 is reported as 490 nM. `CN(C)Cc1ccccc1CN(CC(=O)Nc1ccc2c(c1)CC1(C2)C(=O)Nc2ncccc21)C(=O)C(C)(C)C` (stereo not drawn) [Example 30, N-(2-((Dimethylamino)methyl)benzyl)-N-(2-oxo-2-((2′-oxo-1,1′,2′,3-tetrahydrospiro[indene-2,3′-pyrrolo[2,3-b]pyridin]-5-yl)amino)ethyl)pivalamide] gave an IC50 of 29.5 nM. `CNCc1ccccc1CN(C(=O)C(C)(C)C)[C@@H](C)C(=O)Nc1ccc2c(c1)CC1(C2)C(=O)Nc2ncccc21` (stereo partly drawn) [Example 34, N-(2-((Methylamino)methyl)benzyl)-N-((2S)-1-oxo-1-((2′-oxo-1,1′,2′,3-tetrahydrospiro[indene-2,3′-pyrrolo[2,3-b]pyridin]-5-yl)amino)propan-2-yl)pivalamide] gave an IC50 of 12.3 nM.
